Data on one compound can be found in US12023308B2, “Agents for reversing toxic proteinopathies” (THE BROAD INSTITUTE, INC., priority 2019, dated 2024).

“Also recorded” adds a separate entry of the source.

The test system of data set [1] is UPR. Briefly: RNA-Seq analysis of UPR branch activation in P cells. The settings on record: BRD-4780 1 μM, THP 100 nM. The class given is cell-based, human. Here is the method:
For RNA-seq experiments, N and P cells were plated in 12-well plates at 200,000 cells/well. Subsequently, 1 μM of BRD-4780 or DMSO were applied for 24 hr followed by 12 hr exposure to 100 nM of thapsigargin (THP) or DMSO for control. At the end of the experiment, RNA was extracted from treated cells and sequencing was performed as described below.
UPR branch activation analysis is presented as boxplots. Each box of the boxplot consists of genes comprising an individual UPR branch (Adamson et al., 2016). The expression of each gene in the group is plotted as mean of the scaled expression profiles obtained from three replicates.

For data set [2], the system named is ER stress and the UPR. Briefly: RNA-Seq pathway analysis of fs/+ mouse kidney lysates. Type of data set: in vivo. The settings on record: fs/+ mice, 50 mg/kg/day, 7 days. Here is the method:
RNA was extracted from a sagittal section of a half-kidney. Kidney tissue was homogenized using tissue homogenizer (Tissue-Tearor™, BioSpec Products) in 1 mL of TRIzol™ Reagent (15596026, Thermo Fisher Scientific®). Following 5 min incubation, 0.2 mL chloroform (C2432-500ML, Sigma-Aldrich) was added, and samples were vigorously mixed for 30 sec, then centrifuged at 12,000×g at 4° C. for 15 min. The upper aqueous phase containing RNA was then vigorously mixed with 0.5 mL of isopropanol for 30 sec. After 10 min incubation at RT, the samples were centrifuged at 12,000×g at 4° C. for 10 min. The pellet was resuspended in 1 mL of 75% ethanol and centrifuged at 12,000×g 4° C. for 5 min. The RNA pellet was then air dried for 15 min, dissolved in 50 μL of Nuclease-Free Water (AM9937, Thermo Fisher Scientific®), treated with DNase I, Amplification Grade (18068015, Thermo Fisher Scientific®) following the manufacturer's protocol and assessed for yield and purity by NanoDrop™ 2000 (Thermo Fisher Scientific®).
Data processing and statistical analyses for all RNA-seq experiments were performed in RStudio—Version 1.0.153 as follows. First, bam files obtained from the Broad Institute sequencing platform were reverted to FASTQ files followed by alignment of paired end reads to the mm10 mouse or hg19 human reference genome using STAR. […]

Data set [3] concerns huntingtin (97 polyQ). As to the kind of experiment: Huntingtin-GFP (97 polyQ) accumulation in HEK cells. Type of data set: cell-based, human. The following applies: 10 μM, 72 hours. As for the experimental part: HEK293T cells were transfected with Huntingtin 97Q repeats fused to GFP and selected in 0.8 mg/mL G418 (Thermo Fisher Scientific®).
For GFP-Huntingtin experiments (FIGS. 15G and 15H), GFP signal in each cell was calculated using the “spot” identification feature, and total spot intensity for single cells was calculated and averaged for each well.
HEK293T stably expressing huntingtin 97Q-GFP were treated with 10 μM of BRD-4780 or vehicle DMSO, then monitored for GFP intensity by live cell imaging.

A short description of data set [4]: Dose response exposure PK study in male 129-ELITE mice. Type of data set: in vivo, mouse. The settings on record: single p.o. doses. Here is the method: 4) A pharmacokinetic study was performed by Charles River Labs (CRL) (Worcester, Mass., USA) in fed male 129-ELITE mice (study EF-0024-DA-MI) to determine the dose response exposure of BRD-4780, BRD-1365 and BRD-7709 in plasma, kidney, liver and eye. Brain exposure to BRD-4780 at 30 mg/kg was also evaluated A single dose of BRD-4780 was administered at 30.0 mg/kg or 100 mg/kg orally (p.o) in a clear solution of 5% dextrose in water (D5W). For BRD-1365 and BRD-7709, a single dose of either compound was administered at 10.0 mg/kg, 30.0 mg/kg, 50.0 mg/kg or 100 mg/kg orally (p.o) in a clear solution of 5% dextrose in water (D5W). Blood, kidney, liver and eye tissue were collected from n=3 mice per dose group at six time points post p.o. dose administration (1, 2, 6, 10, 16 and 24 hours) with all three compounds. Brain tissue was collected from n=3 mice per dose group at six time points post p.o. dose administration (1, 2, 6, 10, 16 and 24 hours) with BRD-4780 at 30 mg/kg. Plasma obtained by centrifugation and tissue fragments were homogenized. Plasma and tissue drug concentration was determined by LC-MS/MS and reported as drug concentration in ng/mL for plasma and ng/mg for kidney, liver and eye tissue, plotted as the mean±standard deviation concentration for males for BRD-4780 ([…]), BRD-1365 (FIG. 11K) and BRD-7709 (FIG. 11M). Standard pharmacokinetic parameters were calculated for males for BRD-4780 ([…]), BRD-1365 (FIG. 11O) and BRD-7709 (FIG. 11P).

Data set [5] can be described thus: Plasma stability. The class given is in vitro ADME.
Protocol: Plasma stability was determined at 37° C. at 5 hr in plasma. Each compound was prepared in duplicate at 5 μM in plasma diluted 50/50 (v/v) with PBS pH 7.4 (0.95% acetonitrile, 0.05% DMSO). Duplicate plates were prepared. One plate was incubated at 37° C. for 5 hr with a 350 rpm orbital shake, while the other plate was immediately quenched. Each well was quenched by adding acetonitrile to a 3:1 ratio (v/v, ACN/plasma). After quenching, samples were centrifuged (32×G) to pellet precipitated particulates and an aliquot of supernatant was diluted 50/50 (v/v) with water. The resulting solution was analyzed by UPLC-MS/MS with compounds detected by MRM detection on a triple quadrupole mass spectrometer. The compound peak areas at 0 and 5 hr were compared to determine a percent remaining. Percent remaining in plasma was calculated through the following equation: % remaining=[area (5 hr)/area (0 hr)]×100. (LC System, Waters Acquity I-Class; MS System, AB Sciex Triple Quad 4500; Column, Waters Acquity UPLC BEH C18, 1.7 μm, 2.1×50 mm; Mobile Phase A, Water with 0.1% formic acid; Mobile Phase B, Acetonitrile with 0.1% formic acid; Flow Rate, 0.90 mL/min; Column Temperature, 55° C.).

Take `CC(C)[C@@H]1[C@H]2CC[C@H](C2)[C@H]1N` (racemic) [BRD-4780, 2-endo-amino-3-exo-isopropylbicyclo[2.2.1]heptane]: the UPR activation result in data set [1] is reported as “significantly reduced UPR activation”. Also, the “pathways changed in kidney bulk RNA-Seq” value in data set [2] was “downregulated pathways associated with ER stress and the UPR”. The “intracellular accumulation of GFP-tagged mutant huntingtin (97 polyQ)” value in data set [3] is “did not reverse or diminish the intracellular accumulation; also recorded: no effect on mutant huntingtin”. For the same compound, the “dose proportionality of AUC exposures” value in data set [4] is “not dose proportional”. Also, the plasma stability entry in data set [5] was “good microsomal and plasma stability”.
